Reference: US10034896B2, “Compositions and methods for treatment of osteoporosis and other indications” (priority 2012, dated 2018)

Experiments:
[1] = test system: capillary circulation of the skin; assay: Laser Doppler study of creams in five human subjects, Example 7; format: in vivo; details: positive control formulation containing 0.1% methyl nicotinate
Text: This example illustrates delivery of nitric oxide formulations to five human subjects, using procedures and formulations similar to those discussed in Example 5. Each person served as their own control for the testing. A Moor Instruments Laser Doppler was used to determine circulation. […] The formulations used produce positive, almost immediate results when applied to the skin which, in these studies, was manifested by vasodilatation of the cutaneous vascular system.
For each subject, the following creams were applied: a negative control formulation (containing no NO), 0.010 gram of a 10,000 ppm NO formulation, 0.020 gram of a 10,000 ppm NO formulation, and a positive control formulation containing 0.1% methyl nicotinate. The formulations were prepared using procedures similar to those discussed in Example 1.

[2] = test system: micro-capillary blood flow to skin; assay: Laser Doppler study in closed Hilltop chamber on forearm, Example 5; format: in vivo, human; details: applied to the skin at 1/10% in alcohol
Text: The formulation used in these studies contained nitric oxide dispersed in a lipid matrix. […] Nitric oxide is a very rapid acting molecule, and these studies used a system that employed laser Doppler with a covered chamber. The formulation was placed into the chamber and then attached to the skin by an adhesive layer on the covering. This provided a stable measuring device as determined by multiple normal evaluations of the capillary blood flow without treatment of nitric oxide.
A known positive control, methyl nicotinate, was applied to the skin at a concentration of 1/10% in alcohol. […] The vascular dynamics are such that when the blood vessels dilate physical parameters follow Bernoulli's law. […] The laser Doppler device accurately measured these parameters.
In these studies, the participants were healthy females aged 30 to 55 years. They were in good health as determined by the medical history and were not taking any prescription medications. All study participants read and signed the informed consent statement prior to any study procedures being performed. […]
A Moor Instruments DRT4 Laser Doppler Blood Flow Monitor (Devon, England) was used in these studies. The laser Doppler technique measured blood flow in the microcapillaries of the skin that are close to the skin surface and the blood flow in underlying arterioles and venules that help to regulate skin temperature. […]

[3] = Nitric oxide gas bubbled through carrier, weight gain; format: physicochemical; details: NO gas bubbled 40 hr, 25 ° C.
Description: This example illustrates one technique for preparing a composition in accordance with one embodiment of the invention. An accurate amount of a carrier (HNC 167-62) (see below) was introduced into a system. The carrier weight used in these experiments was approximately 250 g and the vessel size was 500 ml. The vessel was equipped with a mechanical stirrer, gas inlet, and gas outlet and was previously purged with argon for about an hour. The temperature of the carrier was kept at about 25-30° C. NO gas regulated at 5 psi (1 psi is about 6,900 Pa) and was then introduced at a controlled rate of about 1 bubble/s with continuous stirring. […] After 6 hours, the weight of the carrier had increased by 0.15%, by 12 hours by 0.25%, and by 24 hours by 0.56%. These increases in weight were believed to be significant considering the relative small molecular weight of NO versus the carrier. […] The carrier also can solidify upon cooling if the carrier is initially a solid at lower temperature.
Each carrier was taken in a 500 mL three necked flask equipped with a mechanical stirrer, gas inlet and a gas outlet. The system was purged with argon for one hour at room temperature (25° C.). Then nitric oxide gas was bubbled into the system. Then, nitric oxide gas was bubbled through carrier for stipulated amount of time. The changes in weight and color were noted. […]

Compound: COC(=O)c1cccnc1 [methyl nicotinate]
- vasodilatation (laser Doppler) [1]: vasodilatation was observed
- laser Doppler response to positive control [2]: rapid response typical of the vasodilator

Compound: OCCCO [1,3-Propanediol, 1,3-propanediol]
- % Wt. gain [3]: 0.09%
